Assay results published in patent US20100254951A1, “Nerve Regeneration Promoting Agent” (MOCHIDA PHARMACEUTICAL CO., LTD., priority 2005, published 2010).

How the values were obtained:
neural stem cells = assay: Effect on proliferative activity of neural stem cells (BrdU incorporation); assay type: cell-based, rat; details: 10 μM BrdU, cultivation for 24 hours under differentiation induction; n=6; P=0.02 vs control
Method: In the same way as Experimental Example 1, neural stem cells were divided into DHA group and control (DHA free) group, and 10 μM 5-bromo-2′-droxyuridine (BrdU; Sigma) was added under culture conditions for differentiation induction, followed by cultivation for 24 hours. Thereafter, the cells were treated with 2N HCl at 37° C. for 10 minutes and treated with 0.1 M borate buffer (Na2B4O7, pH 8.5) for 5 minutes. The cell were treated with anti-mouse BrdU antibody (1:1000 Chemicon) and then treated with FITC-labeled secondary antibody.
7 random fields per well were sampled, and the numbers of BrdU-positive cells were counted to calculate a ratio of the number of BrdU-positive cells to the number of total cells. The number of total cells was counted by PI staining. Statistical analysis was evaluated by student's t-test.

[1] = system: adult rat hippocampal dentate gyrus; assay: Effect on neurogenesis in adult rat hippocampal dentate gyrus region (BrdU-NeuN double positive cells); assay type: in vivo; details: 300 mg/kg/day gavaged for 7 weeks
Method: 18-week-old Wister male rats fed with a fish oil-free diet for three generations were used. To DHA group, 4,7,10,13,16,19-docosahexaenoate suspended in a 5% gum arabic solution was gavaged at 300 mg/kg/day every day for 7 weeks. To control group, in the same way as above, only a 5% gum arabic solution was gavaged in the same dose. From 2 weeks after initiation of oral administration, BrdU dissolved in PBS (−) was injected to rats intraperitoneally once a day for 5 days (50 mg/kg).
4 weeks after completion of BrdU administration, PBS (−) was perfused from the hearts of the rats, followed by fixation with 4% paraformaldehyde. The brains were isolated and fixed with paraformaldehyde for further 24 hours, followed by exchange for 25% sucrose. Coronal sections (40 μm) were cut by a microtome, and nuclei labeled with BrdU were detected by the following procedures. […]
Six sections were selected at intervals of 240 μm from the rostro caudal region of a granular cell layer in the whole dentate gyrus, and BrdU-NeuN double positive cells in the granular cell layer and subgranular zone (inside zone along the granular cell layer) were counted. […] The referential volume of the granular cell layer was calculated from the areas of the sampled sections.

[2] = system: neural stem cells and cells differentiated from neural stem cells; assay: Effect on apoptosis of neural stem cells and cells differentiated from neural stem cells (pycnotic cells by PI staining, TUNEL); assay type: cell-based, rat; details: cultivated under differentiation induction for 7 days; n=6; P=0.01 vs control
Method: In the same way as Experimental Example 1, neural stem cells were divided into DHA group and control (DHA free) group and cultivated under culture conditions for differentiation induction for 7 days, and pycnotic cells were evaluated by PI staining.
Apoptosis in the pycnotic cells were confirmed by TUNEL staining. The TUNEL staining was performed using Red In Situ Apoptosis Detection kit (Chemicon). Cells of the DHA group and the control group were cultivated for 7 days under the above-mentioned differentiation conditions and fixed with 4% paraformaldehyde, followed by incubation together with digoxigenin-dUTP in the presence of TdT at 37° C. for 1 hour. TUNEL-labeled cells were detected with Rhodamine conjugated anti-digoxigenin antibody and observed using confocal scanning laser microscopy.

## CC/C=C\C/C=C\C/C=C\C/C=C\C/C=C\C/C=C\CCC(=O)O [DHA, docosahexaenoic acid]
Neural stem cells
  ratio of BrdU-positive cells to the number of total cells: 16.3±1.0%
[1]; 18-week-old Wister male rats
  number of BrdU-NeuN double positive cells in the whole granular cell layer of the dentate gyrus compared to the control group: 1.6 fold
[1]; n=3, P=0.005 vs control
  average number of the BrdU-NeuN double positive cells in the respective sections: 878±72.3 cells
[2]
  ratio of the pycnotic cells to the number of total cells: 54.3±3.7%
